Positions of bridges follow the written chain, without caps; N, C: chain ends. No end group written: not given here.

Test [1] concerns the target T1, human SLC-1 (Homo sapiens, UniProt Q99705).
T1 construct: expressed in transfected cells; host or cells: CHO dhfr- cells, plasmid pAKK0-hSLC-1(S) or pAKK0-hSLC-1(L)
Kind of test: GTPγS binding activity using human SLC-1-expression CHO cell membrane fraction (Example 16). Format: biochemical.
Protocol: A human SLC-1-expression CHO cell membrane fraction was prepared by the following procedure. Human SLC-1-expression CHO cells (1×10^8 cells) were suspended in phosphate buffered saline (pH 7.4) supplemented with 5 mM EDTA (ethylene diamine tetra acetic acid) followed by centrifugation. after 10 ml of a homogenate buffer (10 mM NaHCO3, 5 mM EDTA, pH 7.5) was added to the cell pellets, the mixture was homogenized with a polytron homogenizer. the homogenate was then centrifuged at 400×g for 15 minutes. the resulting supernatant was further centrifuged at 100,000×g for an hour to give membrane fraction precipitates. the precipitates were suspended in 2 ml of an assay buffer (50 mM Tris-HCl (pH 7.5), 1 mM EDTA, 0.1% BSA (bovine serum albumin), 10 mM MgCl2, 100 mM NaCl, 1 mM GDP (guanosine 5′-diphosphate), 0.25 mM PMSF (phenylmethylsulfonyl fluoride), 1 μg/ml pepstatin, 20 μg/ml leupeptin, 10 μg/ml phosphoramidon] and the suspension was centrifuged at 100,000×g for an hour. the cell membrane recovered as precipitates was resuspended in 20 ml of the assay buffer. after dispensing, the suspension was stored at −80° C., which may be thawed every time at use.

For test [2], the target named is T1, human SLC-1. Kind of test: Arachidonic acid metabolite release activity on human SLC-1-expression CHO cells. The class given is cell-based. The settings on record: human SLC-1 expression cells (CHO/hSLC-1(S) or CHO/hSLC-1(L)). On the procedure: The CHO/hSLC-1(S) strain or the CHO/hSLC-1(L) strain, which was human SLC-1-expression CHO cells selected in EXAMPLE 13, were inoculated on a 24-well plate in 5×10^4 cells/well. After incubation for 24 hours, [^3H] arachidonic acid was added in 0.25 μCi/well. Sixteen hours after the addition of [^3H] arachidonic acid, the cells were washed with Hanks' balanced salt solution (pH 7.4) containing 0.05% BSA and 20 mM HEPES. […] Hereinafter, Hanks' balanced salt solution (pH7.4) containing 0.05% BSA and 20 mM HEPES is referred to as a reaction buffer. After incubating at 37° C. for 60 minutes, 400 μl of the reaction solution was charged in a scintillator and the amount of [^3H] arachidonic acid metabolites released into the reaction solution was measured using a scintillation counter.

Test [3] has as its target T1, human SLC-1. Kind of test: cAMP synthesis inhibitory activity on human SLC-1-expression CHO cells. The settings on record: human SLC-1 expression cells (CHO/hSLC-1(S) or CHO/hSLC-1(L)), 2 μM forskolin. Format: cell-based. On the procedure: The CHO/hSLC-1(S) strain or the CHO/hSLC-1(L) strain, which was human SLC-1-expression CHO cells selected in EXAMPLE 13, was inoculated on a 24-well plate in 5×10^4 cells/well followed by cultivation for 48 hours. The cells were then washed with Hanks' balanced salt solution (pH 7.4) containing 0.2 mM 3-isobutylmethylxanthine, 0.05% BSA and 20 mM HEPES (hereinafter Hanks' balanced salt solution (pH 7.4) containing 0.2 mM 3-isobutylmethylxanthine, 0.05% BSA and 20 mM HEPES is referred to as a reaction buffer). Subsequently, 0.5 ml of the reaction buffer was added to the cells, which was maintained in the medium for 30 minutes. The reaction buffer was removed and 0.25 ml of a fresh reaction buffer was added to the cells. […] By adding 100 μl of 20% perchloric acid, the reaction was terminated. Next, the reaction mixture was allowed to stand on ice for an hour to extract intracellular cAMP. The amount of cAMP in the extract was measured using cAMP EIA kit (Amersham Pharmacia Biotech).

Test [4] deals with T2, rat SLC-1 (Rattus norvegicus, UniProt P97639).
T2 construct: expressed in transfected cells; host or cells: CHO dhfr- cells, plasmid pAKK0-SLC-1, mainly clone #44
Kind of test: cAMP synthesis inhibitory activity on rat SLC-1-expression CHO cells (forskolin-stimulated, cAMP EIA). Format: cell-based. As to conditions: 2 μM forskolin. The protocol:
The CHO/SLC-1 cells prepared in EXAMPLE 4 and mock CHO cells were inoculated on a 24-well plate in 5×10^4 cells/well. After incubation for 48 hours, the cells were washed with Hanks' balanced salt solution (pH 7.4) supplemented with 0.2 mM 3-isobutylmethylxanthine, 0.05% BSA and 20 mM HEPES (hereinafter Hanks' balanced salt solution (pH. 7.4) supplemented with 0.2 mM 3-isobutylmethylxanthine, 0.05% BSA and 20 mM HEPES is referred to as a reaction buffer). Thereafter, 0.5 ml of the reaction buffer was added to the cells, which was kept warm in the medium for 30 minutes. The reaction buffer was removed and 0.25 ml of a fresh reaction buffer was added to the cells. Then, 0.25 ml of the reaction buffer containing the HPLC fraction and 2 μM for skolin was added to the cells followed by reacting at 37° C. for 24 minutes. By adding 100 μl of 20% perchloric acid, the reaction was terminated. The reaction mixture was then allowed to stand on ice for an hour to extract intracellular cAMP. The amount of cAMP in the extract was measured using a cAMP EIA kit (Amersham Pharmacia Biotech). As a result, the cAMP synthesis inhibitory activity specific to the CHO/SLC-1 cells was detected in fractions #33, #34 and #35 (FIG. 1). In FIG. 1, taking as 100% the amount obtained by subtracting the intracellular cAMP amount when adding the reaction buffer from the intracellular cAMP amount when adding the forskolin-containing reaction buffer, the cAMP synthesis inhibitory activity was expressed by % in terms of the intracellular cAMP amount obtained by subtracting the intracellular cAMP amount when adding the reaction buffer from the intracellular cAMP amount when adding the HPLC fraction (a 1 μl aliquot of each fraction diluted to 100-fold with DMSO was added).
The CHO/SLC-1 cells selected in EXAMPLE 4 were inoculated on a 24-well plate in 5×10^4 cells/well followed by cultivation for 48 hours. […] The amount of cAMP in the extract was measured using cAMP EIA kit (Amersham Pharmacia Biotech).

For test [5], the target named is T2, rat SLC-1. Kind of test: GTPγS binding activity to rat SLC-1-expression CHO cell membrane fraction (Example 9). The class given is biochemical. The protocol:
First, preparation of the membrane fraction is described. To 1×10^8 CHO/SLC-1 cells was added 10 ml of a homogenate buffer (10 mM NaHCO3, 5 mM EDTA, 0.5 mM PMSF, 1 μg/ml pepstatin, 4 μg/ml E64, 20 μg/ml leupeptin), followed by cell disruption with a polytron (12,000 rpm, 1 min.). The disrupted cells were then centrifuged (1,000 g, 15 mins.) to give the supernatant. Next, the supernatant was subjected to ultracentrifugation (Beckman type 30 rotor, 30,000 rpm, 1 hour). The resulting precipitate was used as a rat SLC-1-expression CHO cell membrane.
The GTPyS binding activity was assayed as follows. The rat SLC-1-expression CHO cell membrane fraction was diluted with a buffer for membrane dilution (50 mM Tris-hydrochloride buffer (pH 7.4), 5 mM MgCl2, 150 mM NaCl, 1 μM GDP) to make a cell membrane fraction solution for assay having a protein concentration of […]. […] The resulting solution mixture was kept at 25° C. for an hour. The mixture was filtrated through a filter. After washing twice with 1.5 ml of a washing buffer (50 mM Tris-hydrochloride buffer (pH 7.4), 5 mM MgCl2, 1 mM EDTA, 0.1% BSA), radioactivity of the filter was measured using a liquid scintillation counter.

For test [6], the target named is T2, rat SLC-1. Kind of test: Arachidonic acid metabolite release activity on rat SLC-1-expression CHO cells. The class given is cell-based. On the procedure: The CHO/SLC-1 cells selected in EXAMPLE 4 were inoculated on a 24-well plate in 5×10^4 cells/well. After incubation for 24 hours, [^3H] arachidonic acid was added to each well in 0.25 μCi/well. Sixteen hours after the addition of [^3H] arachidonic acid, the cells were washed with Hanks' balanced salt solution (pH7.4) containing 0.05% BSA and 20 mM HEPES. […] Hereinafter Hanks' balanced salt solution (pH 7.4) containing 0.05% BSA and 20 mM HEPES is referred to as a reaction buffer. After incubating at 37° C. for 60 minutes, 400 μl of the reaction solution was charged in a scintillator and the amount of [^3H]arachidonic acid metabolites released into the reaction solution was measured using a scintillation counter.

The target of test [7] is T1, human SLC-1. Kind of test: Receptor binding test using [125I]-labeled MCH(4-19) and human SLC-1-expression CHO cell membrane fraction. The settings on record: various membrane fraction concentrations; FIG. 9. The protocol:
The cell membrane fraction prepared from human SLC-1-expression CHO cells according to EXAMPLE 16 was diluted with an assay buffer (25 mM Tris-HCl, 1 mM EDTA (ethylene diamine tetra acetic acid), 0.1% BSA (bovine serum albumin), 0.25 mM PMSF (phenylmethylsulfonyl fluoride), 1 μg/ml pepstatin, 20 μg/ml leupeptin, 10 μg/ml phosphoramidon, pH 7.5) in various concentration.

T2 sequence (P97639 whole entry): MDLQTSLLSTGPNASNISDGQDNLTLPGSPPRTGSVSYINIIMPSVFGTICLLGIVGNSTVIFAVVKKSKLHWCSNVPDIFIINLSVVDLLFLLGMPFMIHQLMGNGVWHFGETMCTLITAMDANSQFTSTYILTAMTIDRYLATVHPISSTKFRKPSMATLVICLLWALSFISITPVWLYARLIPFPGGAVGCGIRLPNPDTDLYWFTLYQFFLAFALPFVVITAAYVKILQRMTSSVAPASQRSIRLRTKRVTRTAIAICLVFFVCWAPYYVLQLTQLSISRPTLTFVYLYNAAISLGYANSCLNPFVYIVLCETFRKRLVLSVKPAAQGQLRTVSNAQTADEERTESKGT
T1 sequence (Q99705 with tags, fused parts or gaps): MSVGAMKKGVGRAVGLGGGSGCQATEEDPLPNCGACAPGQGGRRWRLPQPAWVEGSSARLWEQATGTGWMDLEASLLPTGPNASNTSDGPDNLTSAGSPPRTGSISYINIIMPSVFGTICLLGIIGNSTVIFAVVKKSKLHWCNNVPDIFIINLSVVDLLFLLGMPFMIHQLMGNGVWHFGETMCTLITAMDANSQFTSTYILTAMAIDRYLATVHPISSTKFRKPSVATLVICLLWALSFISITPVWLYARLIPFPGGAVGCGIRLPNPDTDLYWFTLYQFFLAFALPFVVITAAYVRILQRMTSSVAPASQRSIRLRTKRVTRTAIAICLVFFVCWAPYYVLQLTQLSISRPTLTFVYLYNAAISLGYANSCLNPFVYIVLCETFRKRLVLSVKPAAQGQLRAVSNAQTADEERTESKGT

As for `CSCC[C@@H]1NC(=O)[C@@H](NC(=O)[C@H](CCCNC(=N)N)NC(=O)[C@H](CC(C)C)NC(=O)[C@H](CCSC)NC(=O)[C@H](CC(=O)O)NC(=O)[C@H](Cc2ccccc2)NC(=O)[C@@H](N)CC(=O)O)CSSC[C@@H](C(=O)N[C@@H](Cc2c[nH]c3ccccc23)C(=O)N[C@@H](CCC(N)=O)C(=O)N[C@H](C(=O)O)C(C)C)NC(=O)[C@@H]2CCCN2C(=O)[C@H](CCCNC(=N)N)NC(=O)[C@H](Cc2ccc(O)cc2)NC(=O)[C@H](C(C)C)NC(=O)[C@H](CCCNC(=N)N)NC(=O)CNC(=O)[C@H](CC(C)C)NC1=O` [MCH], the “amount of [35S]-GTPγS bound, dose dependence” value at human SLC-1 [1] was “increased dose-dependently”. Besides, at human SLC-1 [2], the “arachidonic acid metabolite release activity, dose dependence” value is “showed the arachidonic acid metabolite release activity dose-dependently”. The “amount of intracellular cAMP, dose dependence” value on human SLC-1 [3] is reported as “decreased dose-dependently”. For the same compound, on rat SLC-1 [4], the “concentration at which the amount of intracellular cAMP was obviously reduced” value was found to be 0.1 nM. The “cAMP synthesis (production) inhibitory activity, dose dependence” value on rat SLC-1 [4] (FIG. 5) was “decreased dose-dependently”; at rat SLC-1 [4] (FIG. 5, listed as rat MCH) it was “showed the inhibitory activity dose-dependently”. For the same compound, on rat SLC-1 [5], the “amount of [35S]-GTPγS bound to the membrane fraction, dose dependence” value was “dose-dependently increased”. Besides, on rat SLC-1 [5] (25° C. 1 hour, read-out: concentration inducing 50% binding of [35S]-GTPγS), the EC50 was approximately 0.5 nM. In addition, the “concentration at which apparent release of arachidonic acid metabolites occurred” value at rat SLC-1 [6] (37° C. 60 minutes) is on record as 3 nM. Also, the “arachidonic acid metabolite release, dose dependence” value on rat SLC-1 [6] (FIG. 6) is listed as “dose-dependently released”.

“[^125I]-[N-(3-(4-Hydroxy-3-iodophenyl)propionyl)-Met^4]-MC H(4-19) ({3‑(4-hydroxy-3-(125I)iodophenyl)propionyl}-MLRCMLGRVYRPCWQV; disulfide 4-13) [[^125I]-labeled MCH(4-19)]”: the “specific binding (SB) to the cell membrane fraction” value with human SLC-1 [7] was “recognized dependent on the concentration of the membrane fraction”.

The record behind these values is patent US6991908B1, “Antiobestic agents methods for screening antiobestic agents and kits comprising same” (Takeda Chemical Industries, Ltd., priority 1998, dated 2006).
